{
  "source": "ChEMBL document CHEMBL3421577",
  "about": "“Discovery and biological evaluation of tetrahydrothieno[2,3-c]pyridine derivatives as selective metabotropic glutamate receptor 1 antagonists for the potential treatment of neuropathic pain” (Eur J Med Chem, 2015)",
  "key": {"[1]": {"assay": "Ratio of drug level in brain to plasma in Sprague-Dawley rat at 10 mg/kg, po measured at 2 hrs by LC-MS/MS analysis", "type": "ADME, organism-based", "design": "dose 10 mg/kg, route oral", "conditions": "read-out: BPR"}, "[2]": {"molecular_target": "B2 bradykinin receptor (Homo sapiens) (UniProt P30411)", "sequence (P30411 whole entry)": "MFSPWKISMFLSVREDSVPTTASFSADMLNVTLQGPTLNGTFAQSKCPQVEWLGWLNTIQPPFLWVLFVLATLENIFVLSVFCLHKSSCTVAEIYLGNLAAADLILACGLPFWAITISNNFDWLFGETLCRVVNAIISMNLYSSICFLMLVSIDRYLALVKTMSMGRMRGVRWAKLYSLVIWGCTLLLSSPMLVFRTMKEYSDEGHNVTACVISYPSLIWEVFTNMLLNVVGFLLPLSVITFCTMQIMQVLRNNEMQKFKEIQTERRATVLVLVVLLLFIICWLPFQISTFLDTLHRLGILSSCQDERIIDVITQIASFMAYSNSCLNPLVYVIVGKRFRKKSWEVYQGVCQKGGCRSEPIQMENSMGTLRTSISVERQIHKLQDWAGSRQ", "assay": "Agonist activity at BDKR2 (unknown origin) at 12.5 uM relative to control"}, "CYP1A2": {"molecular_target": "T1, CYP1A2 (Homo sapiens, UniProt P05177)", "T1 sequence (P05177 whole entry)": "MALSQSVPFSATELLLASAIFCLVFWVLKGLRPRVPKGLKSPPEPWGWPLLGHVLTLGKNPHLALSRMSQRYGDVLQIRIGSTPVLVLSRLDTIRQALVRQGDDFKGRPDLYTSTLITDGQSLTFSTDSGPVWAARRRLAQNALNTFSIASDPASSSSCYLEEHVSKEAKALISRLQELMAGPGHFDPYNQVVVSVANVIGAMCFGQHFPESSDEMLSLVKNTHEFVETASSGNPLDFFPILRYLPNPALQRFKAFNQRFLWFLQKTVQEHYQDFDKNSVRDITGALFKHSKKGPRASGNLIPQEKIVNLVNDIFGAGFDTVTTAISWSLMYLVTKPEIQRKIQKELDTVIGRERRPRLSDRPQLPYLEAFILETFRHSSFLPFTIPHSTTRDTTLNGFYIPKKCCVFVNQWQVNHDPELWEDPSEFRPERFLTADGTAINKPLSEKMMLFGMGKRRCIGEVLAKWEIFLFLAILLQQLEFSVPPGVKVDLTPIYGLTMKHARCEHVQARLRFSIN", "assay": "Inhibition of recombinant human CYP1A2 assessed as remaining activity at 10 uM preincubated for 5 mins followed by substrate and NADP addition measured after 20 mins by fluorescence assay relative to control", "type": "ADME", "conditions": "read-out: Activity"}, "[3]": {"assay": "Drug excretion in Sprague-Dawley rat at 10 mg/kg, po by LC-MS/MS analysis", "type": "ADME, organism-based", "design": "dose 10 mg/kg, route oral", "conditions": "in vivo, read-out: Drug excretion"}, "[4]": {"assay": "Metabolic stability in human liver microsomes assessed as compound remaining at 1 uM after 30 mins by LC-MS/MS analysis in presence of NADPH", "type": "ADME", "conditions": "read-out: Stability"}, "[5]": {"assay": "Total clearance in Sprague-Dawley rat at 10 mg/kg, iv by LC-MS/MS analysis", "type": "ADME, organism-based", "design": "dose 10 mg/kg, route intravenous", "conditions": "in vivo"}, "[6]": {"molecular_target": "B2 bradykinin receptor (Homo sapiens) (UniProt P30411)", "assay": "Antagonist activity at BDKR2 (unknown origin) at 10 uM relative to control"}, "Rattus norvegicus [7]": {"system": "Rattus norvegicus", "assay": "Analgesic activity in rat spinal nerve ligation model of neuropathic pain assessed as recovery from mechanical allodynia at 100 mg/kg, po administered on day 14 post ligation surgery measured after 3 hrs relative to control", "type": "functional"}, "[8]": {"molecular_target": "Muscarinic acetylcholine receptor M1 (Homo sapiens) (UniProt P11229)", "sequence (P11229 whole entry)": "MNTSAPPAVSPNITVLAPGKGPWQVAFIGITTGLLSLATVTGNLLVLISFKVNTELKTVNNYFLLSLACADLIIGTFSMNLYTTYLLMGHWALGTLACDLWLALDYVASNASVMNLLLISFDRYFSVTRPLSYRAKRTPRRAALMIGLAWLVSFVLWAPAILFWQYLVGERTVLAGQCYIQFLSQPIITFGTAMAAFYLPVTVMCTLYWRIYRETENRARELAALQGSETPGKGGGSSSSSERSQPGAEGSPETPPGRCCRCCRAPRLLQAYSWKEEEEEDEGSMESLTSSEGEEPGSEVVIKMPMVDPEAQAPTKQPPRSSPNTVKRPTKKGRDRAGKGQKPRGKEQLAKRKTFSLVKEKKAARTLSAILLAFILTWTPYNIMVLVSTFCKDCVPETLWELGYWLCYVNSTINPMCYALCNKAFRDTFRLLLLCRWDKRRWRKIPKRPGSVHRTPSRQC", "assay": "Antagonist activity at M1 receptor (unknown origin) at 10 uM relative to control"}, "[9]": {"molecular_target": "C-X-C chemokine receptor type 4 (Homo sapiens) (UniProt P61073)", "assay": "Antagonist activity at CXCR4 (unknown origin) at 10 uM relative to control"}, "[10]": {"assay": "Terminal half life in Sprague-Dawley rat at 10 mg/kg, iv by LC-MS/MS analysis", "type": "ADME, organism-based", "design": "dose 10 mg/kg, route intravenous", "conditions": "in vivo, read-out: beta t1/2"}, "[11]": {"molecular_target": "C-X-C chemokine receptor type 2 (Homo sapiens) (UniProt P25025)", "assay": "Agonist activity at CXCR2 (unknown origin) at 12.5 uM relative to control"}, "Rattus norvegicus [12]": {"system": "Rattus norvegicus", "assay": "Analgesic activity in rat spinal nerve ligation model of neuropathic pain assessed as recovery from cold allodynia at 100 mg/kg, po administered on day 14 post ligation surgery measured after 1 hr relative to control", "type": "functional"}, "[13]": {"assay": "Apparent volume of distribution at steady state in Sprague-Dawley rat at 10 mg/kg, iv by LC-MS/MS analysis", "type": "ADME, organism-based", "design": "dose 10 mg/kg, route intravenous", "conditions": "in vivo, read-out: Vdss(app)"}, "[14]": {"assay": "Mean residence time in Sprague-Dawley rat at 10 mg/kg, iv by LC-MS/MS analysis", "type": "ADME, organism-based", "design": "dose 10 mg/kg, route intravenous", "conditions": "in vivo"}, "[15]": {"molecular_target": "Alpha-1A adrenergic receptor (Homo sapiens) (UniProt P35348)", "sequence (P35348 whole entry)": "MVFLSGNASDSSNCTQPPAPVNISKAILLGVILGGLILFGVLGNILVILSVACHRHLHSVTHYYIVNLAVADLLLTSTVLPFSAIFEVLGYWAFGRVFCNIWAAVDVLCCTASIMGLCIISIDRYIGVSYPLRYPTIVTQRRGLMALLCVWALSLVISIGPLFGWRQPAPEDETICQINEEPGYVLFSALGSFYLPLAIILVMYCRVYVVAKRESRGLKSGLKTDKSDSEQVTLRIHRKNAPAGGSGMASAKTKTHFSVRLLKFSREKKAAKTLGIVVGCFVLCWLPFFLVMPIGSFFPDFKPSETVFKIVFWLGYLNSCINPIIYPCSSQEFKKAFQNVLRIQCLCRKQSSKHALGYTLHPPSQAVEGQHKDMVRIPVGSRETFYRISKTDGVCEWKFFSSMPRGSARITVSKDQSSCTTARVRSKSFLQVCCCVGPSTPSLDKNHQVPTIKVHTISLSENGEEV", "assay": "Antagonist activity at ADRA1A (unknown origin) at 10 uM relative to control"}, "[16]": {"molecular_target": "Substance-P receptor (Homo sapiens) (UniProt P25103)", "assay": "Agonist activity at NK1 receptor (unknown origin) at 12.5 uM relative to control"}, "[17]": {"molecular_target": "Metabotropic glutamate receptor 2 (Homo sapiens) (UniProt Q14416)", "sequence (Q14416 19-872 limits assumed)": "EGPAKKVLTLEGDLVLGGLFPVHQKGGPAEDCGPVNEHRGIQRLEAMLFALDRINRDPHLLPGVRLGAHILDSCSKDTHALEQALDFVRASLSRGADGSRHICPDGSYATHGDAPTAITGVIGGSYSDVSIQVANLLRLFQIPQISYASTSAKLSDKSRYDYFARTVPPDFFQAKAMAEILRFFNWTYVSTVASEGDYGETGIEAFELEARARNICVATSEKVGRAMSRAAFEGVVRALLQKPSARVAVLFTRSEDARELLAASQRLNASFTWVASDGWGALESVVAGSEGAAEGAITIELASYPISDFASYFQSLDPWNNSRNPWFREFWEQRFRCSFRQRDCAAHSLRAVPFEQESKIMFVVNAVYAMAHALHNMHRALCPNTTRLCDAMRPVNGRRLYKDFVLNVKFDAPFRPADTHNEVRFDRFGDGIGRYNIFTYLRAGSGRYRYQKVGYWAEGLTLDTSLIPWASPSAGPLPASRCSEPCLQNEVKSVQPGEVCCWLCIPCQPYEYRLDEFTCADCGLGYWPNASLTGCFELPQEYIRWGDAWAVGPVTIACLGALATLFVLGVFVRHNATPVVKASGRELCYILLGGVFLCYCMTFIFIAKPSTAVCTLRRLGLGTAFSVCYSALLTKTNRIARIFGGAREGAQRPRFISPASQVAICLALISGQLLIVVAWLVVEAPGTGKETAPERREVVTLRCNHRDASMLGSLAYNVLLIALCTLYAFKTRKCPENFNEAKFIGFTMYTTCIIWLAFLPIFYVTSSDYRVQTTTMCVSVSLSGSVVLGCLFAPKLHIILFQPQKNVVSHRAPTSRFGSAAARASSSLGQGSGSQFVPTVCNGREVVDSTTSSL", "assay": "Antagonist activity at mGlu2 receptor (unknown origin) at 10 uM relative to control"}, "[18]": {"molecular_target": "Muscarinic acetylcholine receptor M5 (Homo sapiens) (UniProt P08912)", "sequence (P08912 whole entry)": "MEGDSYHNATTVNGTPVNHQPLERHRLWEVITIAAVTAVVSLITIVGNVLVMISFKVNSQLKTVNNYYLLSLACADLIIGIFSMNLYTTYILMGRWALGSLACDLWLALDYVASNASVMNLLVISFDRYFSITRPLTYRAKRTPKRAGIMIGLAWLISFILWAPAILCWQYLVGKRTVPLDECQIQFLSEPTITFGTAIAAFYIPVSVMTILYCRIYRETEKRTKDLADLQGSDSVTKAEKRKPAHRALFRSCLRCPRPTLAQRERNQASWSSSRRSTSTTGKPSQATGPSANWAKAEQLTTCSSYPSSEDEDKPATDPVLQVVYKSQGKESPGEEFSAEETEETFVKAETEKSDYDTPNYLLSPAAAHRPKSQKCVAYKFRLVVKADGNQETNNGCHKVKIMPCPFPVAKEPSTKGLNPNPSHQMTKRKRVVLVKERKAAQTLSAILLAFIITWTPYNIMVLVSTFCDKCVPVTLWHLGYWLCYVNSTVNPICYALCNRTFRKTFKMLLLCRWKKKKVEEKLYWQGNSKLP", "assay": "Antagonist activity at M5 receptor (unknown origin) at 10 uM relative to control"}, "[19]": {"molecular_target": "Muscarinic acetylcholine receptor M1 (Homo sapiens) (UniProt P11229)", "assay": "Agonist activity at M1 receptor (unknown origin) at 12.5 uM relative to control"}, "[20]": {"molecular_target": "Metabotropic glutamate receptor 2 (Homo sapiens) (UniProt Q14416)", "assay": "Agonist activity at mGlu2 receptor (unknown origin) at 12.5 uM relative to control"}, "[21]": {"molecular_target": "5-hydroxytryptamine receptor 2C (Homo sapiens) (UniProt P28335)", "assay": "Agonist activity at 5HT2C receptor (unknown origin) at 12.5 uM relative to control"}, "[22]": {"molecular_target": "Alpha-1A adrenergic receptor (Homo sapiens) (UniProt P35348)", "assay": "Agonist activity at ADRA1A (unknown origin) at 12.5 uM relative to control"}, "[23]": {"molecular_target": "C-X-C chemokine receptor type 5 (Homo sapiens) (UniProt P32302)", "sequence (P32302 whole entry)": "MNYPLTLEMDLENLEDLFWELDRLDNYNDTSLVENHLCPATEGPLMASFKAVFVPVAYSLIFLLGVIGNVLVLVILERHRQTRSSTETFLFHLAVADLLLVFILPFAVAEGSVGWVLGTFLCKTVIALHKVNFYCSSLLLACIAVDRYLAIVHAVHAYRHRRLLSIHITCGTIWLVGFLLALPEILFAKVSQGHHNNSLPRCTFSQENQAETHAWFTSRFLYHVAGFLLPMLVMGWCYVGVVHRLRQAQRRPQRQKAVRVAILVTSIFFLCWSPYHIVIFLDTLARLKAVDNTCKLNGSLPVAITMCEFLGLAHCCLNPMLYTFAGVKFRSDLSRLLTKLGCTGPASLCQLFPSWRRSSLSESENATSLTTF", "assay": "Antagonist activity at CXCR5 (unknown origin) at 10 uM relative to control"}, "[24]": {"molecular_target": "Delta-type opioid receptor (Homo sapiens) (UniProt P41143)", "sequence (P41143 whole entry)": "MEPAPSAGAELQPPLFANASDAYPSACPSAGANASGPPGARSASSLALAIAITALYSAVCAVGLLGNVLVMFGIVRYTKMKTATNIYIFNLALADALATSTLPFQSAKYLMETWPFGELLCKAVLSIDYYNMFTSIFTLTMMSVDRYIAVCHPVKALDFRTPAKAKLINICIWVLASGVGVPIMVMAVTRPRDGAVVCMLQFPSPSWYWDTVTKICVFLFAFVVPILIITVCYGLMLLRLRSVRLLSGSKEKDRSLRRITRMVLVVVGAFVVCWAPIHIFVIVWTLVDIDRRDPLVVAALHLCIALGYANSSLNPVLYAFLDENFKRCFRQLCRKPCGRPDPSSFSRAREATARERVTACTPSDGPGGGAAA", "assay": "Agonist activity at OPRD1 receptor (unknown origin) at 12.5 uM relative to control"}, "CYP2C9": {"molecular_target": "CYP2C9 (Homo sapiens, UniProt P11712)", "assay": "Inhibition of recombinant human CYP2C9 assessed as remaining activity at 10 uM preincubated for 5 mins followed by substrate and NADP addition measured after 20 mins by fluorescence assay relative to control", "type": "ADME", "conditions": "read-out: Activity"}, "[25]": {"assay": "Tmax in Sprague-Dawley rat at 10 mg/kg, po by LC-MS/MS analysis", "type": "ADME, organism-based", "design": "dose 10 mg/kg, route oral", "conditions": "in vivo"}, "[26]": {"assay": "AUClast in Sprague-Dawley rat at 10 mg/kg, po by LC-MS/MS analysis", "type": "ADME, organism-based", "design": "time 0 - last, dose 10 mg/kg, route oral", "conditions": "plasma"}, "[27]": {"molecular_target": "T2, Metabotropic glutamate receptor 1 (Homo sapiens, UniProt Q13255)", "T2 sequence (Q13255 19-1194 limits assumed)": "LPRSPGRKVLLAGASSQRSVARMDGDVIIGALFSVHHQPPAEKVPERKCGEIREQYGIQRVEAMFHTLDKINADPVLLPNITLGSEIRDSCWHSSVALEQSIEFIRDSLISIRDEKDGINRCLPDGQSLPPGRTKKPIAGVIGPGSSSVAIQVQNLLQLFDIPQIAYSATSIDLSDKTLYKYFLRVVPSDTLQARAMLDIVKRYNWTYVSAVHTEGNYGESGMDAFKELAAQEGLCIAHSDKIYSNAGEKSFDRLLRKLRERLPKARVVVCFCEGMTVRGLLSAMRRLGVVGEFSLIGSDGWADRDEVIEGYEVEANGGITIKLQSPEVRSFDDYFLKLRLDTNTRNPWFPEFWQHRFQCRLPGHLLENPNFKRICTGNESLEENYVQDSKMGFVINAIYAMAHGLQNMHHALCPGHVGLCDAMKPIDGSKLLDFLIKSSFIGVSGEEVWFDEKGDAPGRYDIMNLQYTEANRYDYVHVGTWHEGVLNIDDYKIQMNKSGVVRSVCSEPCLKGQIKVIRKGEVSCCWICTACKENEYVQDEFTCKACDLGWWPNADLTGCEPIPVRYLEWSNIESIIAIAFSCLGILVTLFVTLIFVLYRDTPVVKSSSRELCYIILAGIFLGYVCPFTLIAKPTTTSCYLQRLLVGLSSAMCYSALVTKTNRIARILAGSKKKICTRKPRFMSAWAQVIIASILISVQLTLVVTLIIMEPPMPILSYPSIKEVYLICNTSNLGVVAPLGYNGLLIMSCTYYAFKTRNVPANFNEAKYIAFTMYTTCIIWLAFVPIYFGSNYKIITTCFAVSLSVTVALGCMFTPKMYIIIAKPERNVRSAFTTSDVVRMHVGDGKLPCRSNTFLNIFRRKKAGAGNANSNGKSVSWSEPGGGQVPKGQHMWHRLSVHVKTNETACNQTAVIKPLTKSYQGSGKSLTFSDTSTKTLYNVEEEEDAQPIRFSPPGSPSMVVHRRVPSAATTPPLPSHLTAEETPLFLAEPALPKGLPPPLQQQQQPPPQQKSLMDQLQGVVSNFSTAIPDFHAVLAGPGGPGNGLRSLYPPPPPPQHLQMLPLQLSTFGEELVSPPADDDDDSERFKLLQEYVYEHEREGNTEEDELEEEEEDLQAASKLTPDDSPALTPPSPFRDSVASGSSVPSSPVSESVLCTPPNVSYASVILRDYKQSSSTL", "assay": "Antagonist activity at mGlu1 receptor (unknown origin) at 10 uM relative to control"}, "[28]": {"molecular_target": "C-C chemokine receptor type 2 (Homo sapiens) (UniProt P41597)", "sequence (P41597 whole entry, looked up)": "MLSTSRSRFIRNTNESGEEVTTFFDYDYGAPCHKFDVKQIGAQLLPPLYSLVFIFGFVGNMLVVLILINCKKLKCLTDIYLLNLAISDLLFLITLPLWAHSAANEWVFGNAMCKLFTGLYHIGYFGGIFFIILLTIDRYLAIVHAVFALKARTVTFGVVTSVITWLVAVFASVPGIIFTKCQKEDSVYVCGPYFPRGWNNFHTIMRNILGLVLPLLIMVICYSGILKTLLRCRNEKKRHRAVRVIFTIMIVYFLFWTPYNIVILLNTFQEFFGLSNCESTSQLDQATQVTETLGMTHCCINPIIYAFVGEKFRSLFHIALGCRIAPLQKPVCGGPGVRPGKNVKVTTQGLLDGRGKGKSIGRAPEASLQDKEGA", "assay": "Antagonist activity at CCR2B (unknown origin) at 10 uM relative to control"}, "[29]": {"molecular_target": "C-C chemokine receptor type 2 (Homo sapiens) (UniProt P41597)", "assay": "Agonist activity at CCR2B (unknown origin) at 12.5 uM relative to control"}, "[30]": {"molecular_target": "T2, Metabotropic glutamate receptor 1", "assay": "Agonist activity at mGlu1 receptor (unknown origin) at 12.5 uM relative to control"}, "[31]": {"assay": "Terminal half life in Sprague-Dawley rat at 10 mg/kg, po by LC-MS/MS analysis", "type": "ADME, organism-based", "design": "dose 10 mg/kg, route oral", "conditions": "in vivo, read-out: beta t1/2"}, "[32]": {"assay": "Drug uptake in Sprague-Dawley rat brain at 10 mg/kg, po measured at 2 hrs by LC-MS/MS analysis", "type": "ADME, organism-based", "design": "dose 10 mg/kg, route oral", "conditions": "read-out: Drug uptake"}, "[33]": {"molecular_target": "C-C chemokine receptor type 4 (Homo sapiens) (UniProt P51679)", "assay": "Agonist activity at CCR4 (unknown origin) at 12.5 uM relative to control"}},
  "data": [
    {"smiles": "Cc1cc(C(=O)N2CCc3c(sc(NCc4ccccc4)c3C#N)C2)[nH]n1", "values": [
      {"measurement": "Kp at 2 h", "setting": "[1]", "result": 0.13},
      {"measurement": "Activity", "setting": "[2]", "result": 0.7, "unit": "%"},
      {"measurement": "activity at 20 min, 10 µM", "setting": "CYP1A2", "result": 72.7, "unit": "%"},
      {"measurement": "dose excreted", "setting": "[3]", "result": 0, "unit": "%"},
      {"measurement": "remaining at 0.5 h, 1 µM", "setting": "[4]", "result": 77.6, "unit": "%"},
      {"measurement": "clearance", "setting": "[5]", "result": 20.1, "unit": "mL/min/kg"},
      {"measurement": "inhibition", "setting": "[6]", "result": 10.3, "unit": "%"},
      {"measurement": "Activity", "setting": "Rattus norvegicus [7]", "result": 60, "unit": "%"},
      {"measurement": "inhibition", "setting": "[8]", "result": -0.6, "unit": "%"},
      {"measurement": "inhibition", "setting": "[9]", "result": 3.9, "unit": "%"},
      {"measurement": "half-life", "setting": "[10]", "result": 1.83, "unit": "h"},
      {"measurement": "Activity", "setting": "[11]", "result": -0.9, "unit": "%"},
      {"measurement": "Activity", "setting": "Rattus norvegicus [12]", "result": 90, "unit": "%"},
      {"measurement": "Vd", "setting": "[13]", "result": 1.66, "unit": "L/kg"},
      {"measurement": "MRT", "setting": "[14]", "result": 1.31, "unit": "h"},
      {"measurement": "inhibition", "setting": "[15]", "result": 9.2, "unit": "%"},
      {"measurement": "Activity", "setting": "[16]", "result": 0.8, "unit": "%"},
      {"measurement": "inhibition", "setting": "[17]", "result": 5.8, "unit": "%"},
      {"measurement": "inhibition", "setting": "[18]", "result": 7.7, "unit": "%"},
      {"measurement": "Activity", "setting": "[19]", "result": -0.5, "unit": "%"},
      {"measurement": "Activity", "setting": "[20]", "result": -2.7, "unit": "%"},
      {"measurement": "Activity", "setting": "[21]", "result": -0.3, "unit": "%"},
      {"measurement": "Activity", "setting": "[22]", "result": 0.3, "unit": "%"},
      {"measurement": "inhibition", "setting": "[23]", "result": 4.5, "unit": "%"},
      {"measurement": "Activity", "setting": "[24]", "result": 1.5, "unit": "%"},
      {"measurement": "activity at 20 min, 10 µM", "setting": "CYP2C9", "result": 6.77, "unit": "%"},
      {"measurement": "Tmax", "setting": "[25]", "result": 1.2, "unit": "h"},
      {"measurement": "AUC(0-t)", "setting": "[26]", "result": 4090, "unit": "ng·h/mL"},
      {"measurement": "inhibition", "setting": "[27]", "result": 104, "unit": "%"},
      {"measurement": "inhibition", "setting": "[28]", "result": -0.1, "unit": "%"},
      {"measurement": "Activity", "setting": "[29]", "result": -1.4, "unit": "%"},
      {"measurement": "Activity", "setting": "[30]", "result": -0.2, "unit": "%"},
      {"measurement": "half-life", "setting": "[31]", "result": 1.48, "unit": "h"},
      {"measurement": "concentration at 2 h", "setting": "[32]", "result": 156, "unit": "ng/mL"},
      {"measurement": "Activity", "setting": "[33]", "result": -2.3, "unit": "%"}
    ]}
  ]
}
